The species entered for one series is Homo sapiens. Briefly: Selectivity ratio of IC50 for GLS2 (unknown origin) to IC50 for GLS1 (unknown origin).
A short description of series [1]: Clearance in rat at 3 mg/kg, iv. The series is classed as ADME, organism-based. The following applies: in vivo.
Series [2] is described as follows: AUC(0 to t) in rat at 3 mg/kg, po. The series is classed as ADME, organism-based. Also noted: dose 3 mg/kg, route po. The conditions noted are these: in vivo.
Series [3] deals with A549. Briefly: Antitumor activity against human A549 cells xenografted in mouse model assessed as tumor growth inhibition at 100 mg/kg once daily via oral gavage administered for 28 days relative to control. The series is classed as functional. The following applies: time 28 day. Also noted: scale not given: the % may be the effect or the level left. In general terms: A xenograft is tissue or cells of one species grown in another, often human tumour cells in immunodeficient mice.

Series [4] in a line: Oral bioavailability in rat at 3 mg/kg. The series is classed as ADME, organism-based. The following applies: in vivo.
Series [5] has as its system HCT-116. Briefly: Inhibition of colony formation in human HCT-116 cells at 2 to 8 uM. The series is classed as functional, cell-based. The conditions noted are these: dose 2-8 µM.
Series [6] deals with A549. The experiment in a line: Induction of cell cycle arrest in human A549 cells assessed as accumulation at G1 phase incubated for 48 hrs by propidium iodide staining based flow cytometry analysis. The series is classed as functional. The following applies: dose 50-800 nM. In general terms: In flow cytometry, cells or beads pass a laser one at a time.
The test system of series [7] is A549. The experiment in a line: Induction of cell cycle arrest in human A549 cells assessed as accumulation of cells at G0/G1 phase at 50 nM incubated for 48 hrs by propidium iodide staining based flow cytometry analysis (Rvb=61.61%). The series is classed as functional.
Series [8] concerns A549. The experiment in a line: Induction of cell cycle arrest in human A549 cells assessed as accumulation of cells at G0/G1 phase at 400 nM incubated for 48 hrs by propidium iodide staining based flow cytometry analysis (Rvb=61.61%). The series is classed as functional.
In series [9] the test system is A549. The experiment in a line: Induction of cell cycle arrest in human A549 cells assessed as accumulation of cells at G2/M phase at 200 nM incubated for 48 hrs by propidium iodide staining based flow cytometry analysis (Rvb=23.88%). The series is classed as functional.
The test system of series [10] is A549. Briefly: Induction of cell cycle arrest in human A549 cells assessed as accumulation of cells at G2/M phase at 400 nM incubated for 48 hrs by propidium iodide staining based flow cytometry analysis (Rvb=23.88%). The series is classed as functional.
Series [11] concerns A549. The experiment in a line: Induction of cell cycle arrest in human A549 cells assessed as accumulation of cells at S phase at 400 nM incubated for 48 hrs by propidium iodide staining based flow cytometry analysis (Rvb=14.51%). The series is classed as functional.
The test system of series [12] is A549. The experiment in a line: Induction of cell cycle arrest in human A549 cells assessed as accumulation of cells at S phase at 800 nM incubated for 48 hrs by propidium iodide staining based flow cytometry analysis (Rvb=14.51%). The series is classed as functional.
Series [13] relates to A549. Briefly: Induction of apoptosis in human A549 cells assessed as early apoptotic cells at 10 uM incubated for 48 hrs by annexin V-FITC and propidium iodide based flow cytometry analysis (Rvb =12.289%). The series is classed as functional.
Series [14] has as its system A549. The experiment in a line: Induction of apoptosis in human A549 cells assessed as late apoptotic cells at 1 uM incubated for 48 hrs by annexin V-FITC and propidium iodide based flow cytometry analysis (Rvb =9.696%). The series is classed as functional.
For series [15], the system named is A549. Briefly: Induction of apoptosis in human A549 cells assessed as late apoptotic cells at 5 uM incubated for 48 hrs by annexin V-FITC and propidium iodide based flow cytometry analysis (Rvb =9.696%). The series is classed as functional.
Series [16] has as its system A549. Briefly: Induction of apoptosis in human A549 cells assessed as late apoptotic cells at 10 uM incubated for 48 hrs by annexin V-FITC and propidium iodide based flow cytometry analysis (Rvb =9.696%). The series is classed as functional.
The nature of series [17]: Toxicity in human A549 cells xenografted in mouse assessed as body weight loss at 100 mg/kg administered via oral gavage for 28 days relative to control. The series is classed as organism-based. The following applies: in vivo, 672 h, time 28 day.
For series [18], the system named is HCT-116. The experiment in a line: Antitumor activity against human HCT-116 cells xenografted in mouse model assessed as reduction in tumor cells at 100 mg/kg administered via oral gavage for 28 days. The following applies: time 28.0 day. The series is classed as functional, organism-based.

The structures appear in SMILES notation. Calls of active or inactive are those of the source. The rule behind the calls is not given here.

Turning to `CCCCCCN1CCC(CNC(=O)c2cccc(COCCC3CCN(c4nnc(NC(=O)Cc5ccccc5)s4)CC3)c2)CC1`, in the series filed under Homo sapiens, the Ratio IC50 is above 100. In series [1], this compound yielded a CL of 102 mL/min/kg. The compound also displayed an AUCt in [2] of 251.6 ng·h/mL. In addition, the Activity is 40.9% in the series on A549 [3]; “Dose-Dependent Effect” in the series on A549 [6]; 62.73% in the series with A549 [7]; 67.53% in the series with A549 [8]; 19.72% with A549 [9]; 18.77% in the series on A549 [10]. Moreover, the Activity with A549 [11] is given as 13.76%; in the series with A549 [12], 11.77%; with A549 [13], 16.025%; in the series on A549 [14], 7.018%; in the series on A549 [15] it was 16.368%; in the series on A549 [16], 68.08%. In addition, in series [17], the Activity entry is recorded as “Non-Toxic”. Moreover, the F in series [4] worked out at 12.4%. Besides, the inhibition entry in the series with HCT-116 [5] is “Active”. Further, the outcome in the series on HCT-116 [18] was Active.

Values taken from ChEMBL document CHEMBL5352409, “Design, synthesis, and pharmacological evaluation of 2-(1-(1,3,4-thiadiazol-2-yl)piperidin-4-yl)ethan-1-ol analogs as novel glutaminase 1 inhibitors” (Eur J Med Chem, 2022).
